Earlier results as cited in patent US20050272741A1, “Novel methods of treatment for Fontan patients with protein losing enteropathy” (priority 2004, published 2005).

Test system: mesenteric bed
Conditions: pretreatment with Viagra, high dose Norepinephrine

## CCCc1nn(C)c2c(=O)[nH]c(-c3cc(S(=O)(=O)N4CCN(C)CC4)ccc3OCC)nc12 [Viagra, Sildenafil]
  Mesenteric relaxation / constriction of the mesenteric bed: even high dose Norepinephrine fails to constrict the mesenteric bed
